Experimental data from paper PMC8707786 (Pharmaceutics, 2021).
Like-named read-outs stand apart in the source and are kept apart here.

Key:
[1] = rat, in vivo
Description: (§1) The supernatant volume for each time point used to prepare the HPLC sample was 20 μL.
(§2) An ammonium acetate 0.1 M, pH = 3.4 (eluent A) and acetonitrile (eluent B) (1:1, v/v) solution were used as a mobile phase. The flow rate was set at 1.0 mL/min. […] Lapatinib was used as the internal standard (IS).

in vivo = details: male, Wistar, rat, po, 100 mg/kg, Cl/F (apparent plasma clearance)
Description: as §1, §2

[2] = Pharmacokinetics of sorafenib and sorafenib N-oxide in rat plasma (HPLC-UV), sorafenib alone or with morphine; details: for increase of AUC0–t in the presence of morphine / increase of Cmax in the presence of morphine: ISOR+MF vs. IISOR, rats; for ratio sorafenib N-oxide/sorafenib, Cmax: metabolite/parent ratio; for AUC0–t / AUC0–∞ / Cmax: rat plasma; for Cmax: mean ± SD
Description: as §1, §2

[3] = geometric mean ratio of the metabolite/parent ratio
[4] = geometric mean ratio, sorafenib + morphine vs. sorafenib alone
[5] = sorafenib 100 mg/kg p.o. + morphine 5 mg/kg i.p. (ISOR+MF, n = 8)
[6] = sorafenib 100 mg/kg p.o. alone (IISOR, n = 8)

SMILES: CNC(=O)c1cc(Oc2ccc(NC(=O)Nc3ccc(Cl)c(C(F)(F)F)c3)cc2)ccn1 [sorafenib]
- lower clearance in the ISOR+MF group ([1]; male, Wistar): 0.4 fold
- AUC0–∞ ([1]; male, Wistar, po, 100 mg/kg): 67.05 ± 16.70 µg·h/mL
- AUC0–t/(D/kg) [1]: 1.25 ± 0.32 µg·kg·h/mL/mg
- AUC0–∞/(D/kg) [1]: 1.33 ± 0.33 µg·kg·h/mL/mg
- adverse effects ([1]; po, 100 mg/kg): did not cause any adverse effects
- CL/F (in vivo): 13.3 mL/min/kg

SMILES: CNC(=O)c1cc(Oc2ccc(NC(=O)Nc3ccc(Cl)c(C(F)(F)F)c3)cc2)cc[n+]1[O-] [sorafenib N-oxide]
- increase of AUC0–t in the presence of morphine [2]: 61.9%
- increase of Cmax in the presence of morphine [2]: 145.5%
- increase of AUC0–t in the presence of morphine ([2]; 'higher by'): 0.6 fold
- increase of Cmax in the presence of morphine ([2]; 'higher by'): 1.5 fold
- ratio sorafenib N-oxide/sorafenib, AUC0–t: Gmean ratio (90% CI) ISOR+MF vs. IISOR [2, 3]: 1.07 (0.70; 1.65)
- ratio sorafenib N-oxide/sorafenib, AUC0–∞: Gmean ratio (90% CI) ISOR+MF vs. IISOR [2, 3]: 0.89 (0.53; 1.51)
- ratio sorafenib N-oxide/sorafenib, Cmax: Gmean ratio (90% CI) ISOR+MF vs. IISOR [2, 3]: 1.03 (0.67; 1.61)
- AUC0–t Gmean ratio (90% CI) ISOR+MF vs. IISOR [2, 4]: 1.64 (1.14; 2.36)
- AUC0–∞ Gmean ratio (90% CI) ISOR+MF vs. IISOR [2, 4]: 1.41 (0.95; 2.08)
- Cmax Gmean ratio (90% CI) ISOR+MF vs. IISOR [2, 4]: 2.15 (1.50; 3.08)
- kel Gmean ratio (90% CI) ISOR+MF vs. IISOR [2, 4]: 0.80 (0.47; 1.36)
- t1/2 Gmean ratio (90% CI) ISOR+MF vs. IISOR [2, 4]: 1.25 (0.73; 2.13)
- tmax Gmean ratio (90% CI) ISOR+MF vs. IISOR [2, 4]: 0.76 (0.41; 1.39)
- ratio sorafenib N-oxide/sorafenib, Cmax ([2]; sorafenib + morphine (ISOR+MF, n = 8)): 0.09 ± 0.07 (76.2) µg/mL
- ratio sorafenib N-oxide/sorafenib, Cmax ([2]; sorafenib alone (IISOR, n = 8)): 0.07 ± 0.02 (26.8) µg/mL
- AUC0–t [2, 5]: 6.64 ± 2.44 (36.8) µg × h/mL
- AUC0–∞ [2, 5]: 9.39 ± 2.97 (31.6) µg × h/mL
- Cmax [2, 5]: 0.27 ± 0.16 (57.5) µg/mL
- AUC0–t [2, 6]: 4.10 ± 1.56 (38.1) µg × h/mL
- AUC0–∞ [2, 6]: 8.61 ± 2.19 (25.4) µg × h/mL
- Cmax [2, 6]: 0.11 ± 0.02 (21.8) µg/mL
- kel (elimination rate constant) [2, 5]: 0.023 ± 0.012 (51.6) h^−1
- t1/2 (elimination phase) [2, 5]: 39.30 ± 22.54 (57.4) h
- tmax [2, 5]: 14.50 ± 11.40 (78.6) h
- kel (elimination rate constant) [2, 6]: 0.016 ± 0.010 (60.9) h^−1
- t1/2 (elimination phase) [2, 6]: 53.31 ± 25.23 (47.3) h
- tmax [2, 6]: 16.38 ± 8.21 (50.1) h
